Measurements reported in ChEMBL document CHEMBL1132462, “Molecular modeling studies on G-quadruplex complexes of telomerase inhibitors: structure-activity relationships” (J Med Chem, 1999).

biological target: Telomerase reverse transcriptase (Homo sapiens, UniProt O14746); assay: Inhibitory activity against Telomerase evaluated by TRAP Assay studies.
Sequence (O14746 whole entry): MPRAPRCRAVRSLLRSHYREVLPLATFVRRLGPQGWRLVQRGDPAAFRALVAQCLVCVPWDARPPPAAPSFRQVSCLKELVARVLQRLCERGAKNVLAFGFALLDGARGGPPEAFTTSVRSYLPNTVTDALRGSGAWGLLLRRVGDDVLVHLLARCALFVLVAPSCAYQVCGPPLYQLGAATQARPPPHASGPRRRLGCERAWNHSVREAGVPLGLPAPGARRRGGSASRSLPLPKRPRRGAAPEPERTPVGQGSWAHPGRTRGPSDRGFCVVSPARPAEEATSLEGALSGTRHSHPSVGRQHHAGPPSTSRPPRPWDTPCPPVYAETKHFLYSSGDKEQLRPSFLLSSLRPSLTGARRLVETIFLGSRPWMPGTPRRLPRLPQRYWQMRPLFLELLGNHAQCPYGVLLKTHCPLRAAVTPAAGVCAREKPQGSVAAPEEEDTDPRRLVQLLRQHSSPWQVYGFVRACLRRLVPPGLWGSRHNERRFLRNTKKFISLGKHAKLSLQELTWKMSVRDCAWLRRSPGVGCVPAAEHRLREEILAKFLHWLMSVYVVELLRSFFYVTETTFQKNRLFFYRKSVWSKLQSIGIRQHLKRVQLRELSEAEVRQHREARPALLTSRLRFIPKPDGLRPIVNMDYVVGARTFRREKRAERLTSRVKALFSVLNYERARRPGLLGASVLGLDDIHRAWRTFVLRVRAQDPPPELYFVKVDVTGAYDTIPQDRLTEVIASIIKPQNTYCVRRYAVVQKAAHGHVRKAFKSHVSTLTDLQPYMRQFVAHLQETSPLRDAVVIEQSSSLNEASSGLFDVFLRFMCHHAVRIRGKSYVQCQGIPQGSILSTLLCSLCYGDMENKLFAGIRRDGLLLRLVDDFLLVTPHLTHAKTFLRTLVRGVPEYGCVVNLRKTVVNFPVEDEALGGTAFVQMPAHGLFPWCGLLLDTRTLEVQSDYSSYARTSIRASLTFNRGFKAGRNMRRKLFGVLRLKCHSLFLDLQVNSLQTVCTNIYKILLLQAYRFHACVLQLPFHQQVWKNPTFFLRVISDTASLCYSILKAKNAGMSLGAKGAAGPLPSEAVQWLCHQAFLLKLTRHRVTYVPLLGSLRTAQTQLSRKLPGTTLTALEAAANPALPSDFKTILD

IC50 [µM] | Compound
13 | O=C(CCN1CCCCCC1)Nc1ccc2c(c1)C(=O)c1ccc(NC(=O)CCN3CCCCCC3)cc1C2=O
> 50 | CC1(C)CC2CC(C)(CN2CCC(=O)Nc2ccc3c(c2)C(=O)c2ccc(NC(=O)CCN4CC5(C)CC4CC(C)(C)C5)cc2C3=O)C1
> 50 | O=C(CCN1CCCCCCC1)Nc1ccc2c(c1)C(=O)c1ccc(NC(=O)CCN3CCCCCCC3)cc1C2=O
